US11253497B2, “Use of derivatives of polyunsaturated fatty acids as medicaments” (Lipopharma Therapeutics, S.L., priority 2009, dated 2022)

How the values were obtained:
[1] = Lamellar-to-hexagonal (HII) transition temperature in DEPE model membranes by Differential Scanning Calorimetry; assay type: physicochemical; settings: for Temperature of lamellar-to-hexagonal transition: DEPE membranes, DEPE:D-PUFA 10:1 (mol:mol); for Transition temperature (lamellar to HII): DEPE (4 mM), 200 μM compound, series A, control 64.5
Outline: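 Lamellar-to-HII transition temperature of DEPE membranes measured by differential scanning calorimetry, with DEPE:fatty acid at 10:1 mol:mol. Control membranes contained no fatty acid.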

[2] = system: breast cancer cells MDA-MB-231; assay: Growth of breast cancer cells MDA-MB-231; assay type: cell-based; settings: 72 hours of incubation
Outline: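 Cell counts taken with compound, mean of three independent experiments. Applies to MDA-MB-231.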

[3] = system: brain cancer cell (glioma) U118; assay: Brain cancer (glioma) U118 cell growth; assay type: cell-based; settings: 72 hours of incubation
Outline: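 Cell counts taken with compound, mean of three independent experiments. Applies to U118.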

lung cancer cells A549 = assay: Growth of lung cancer cells A549 (IC50); assay type: cell-based, human; settings: 72 hours of incubation
Outline: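 Cell counts taken with compound, mean of three independent experiments. Applies to A549 (RPMI 1640, 10% FBS, 37 °C, 5% CO2).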

Jurkat cells = assay: Human leukaemia (Jurkat cells); assay type: cell-based; settings: 72 hours
Experimental: Overall, it may be seen that the series of compounds A and B are the best, so the effectiveness of these series against the development of leukaemia and liver cancer (Tables 9 and 10) was tested.

[4] = system: Spontaneously Hypertensive Rats (SHR); assay: Blood pressure of SHR rats (cuff-tail method); assay type: in vivo, rat; settings: 200 mg/kg day p.o., 30 days, before treatment 214 mmHg
Outline: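 SHR rats dosed orally at 200 mg/kg day for 30 days against water vehicle. At study end, blood pressure taken non-invasively by tail cuff and apoA-I assessed as gene expression by RT-PCR.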

α-synuclein = assay: Expression of α-synuclein in neuronal cultures (cells P19); assay type: cell-based; settings: untreated cells 100%
Alzh mice = assay: Radial maze in animal model of Alzheimer's disease (Alzh mice); assay type: in vivo; settings: animals with Alzheimer's disease, 20 mg/kg daily po, 3 months
Text: On the vertical axis it is represented the neuronal death (% of control) depending on the fatty acid used (x-axis). The presence of PUFAs induced modest increases in the survival of P19 cells in the presence of NMDA. D-PUFAs induced significant increases in cell survival values, exceeding in more than 200% in the case of 226A1. Since the number of cells in cultures treated cells is higher than in control cells, it may be affirmed that these compounds not only prevent neuronal death induced by NMDA (anti-neurodegenerative) but also are neuroregenerative agents. […] In the Y axis of the left figure it is shown the time taken to complete the exercise and in the vertical Y axis of the right figure the total number of errors made in the implementation of programmed exercise (mean standard error of the mean) (runtime). In both figures, from left to right, it is represented in the X axis the results in healthy mice (control) (first column), in mice with induced Alzheimer and treated with water as vehicle (second column) or in mice treated with the compound 226B1 (third column). Animals with Alzheimer's disease took longer and made more errors than healthy mice, being the differences statistically significant (*, P<0.05).
To test the efficacy of the compounds of the present invention to induce neuroregeneration or inhibit neurodegeneration, an animal model of Alzheimer's disease was used. In this model mice develop neurodegeneration because they express a series of mutant proteins that lead to brain damage (Alzh mice). B6 mice were used as healthy animal controls. Both groups of animals were treated for a period of 3 months with vehicle (water) or with various D-PUFA (20 mg/kg, daily po) since they were an age of 3 months. To determine whether cognitive improvement occurred after treatment, animal behaviour was monitored in the radial maze. The animals are kept on restricted diet to have appetite. In a symmetrical 8-arm radial maze, visual marks were placed to facilitate the orientation of the animal and food (15 mg tablet) was put in four of the arms. The time each animal took to complete the exercise, and the number of errors, were measured using a camera attached to a computer system. In this sense, Alzheimer animals have values about 50% higher than healthy animals, both by the time it takes to perform the exercise and by the number of errors made (FIG. 4B). […] In this regard, the effectiveness of the compound 183B1, 205A1, 205B1, 226A1, 226 V1 was also tested, showing improvements in animals with Alzheimer's disease (times of 98, 92, 93, 86 and 89 seconds, respectively). […]

B6 healthy mice = assay: Radial maze in control animals (B6 healthy mice); assay type: in vivo; settings: 20 mg/kg daily po, 3 months
Experimental: To test the efficacy of the compounds of the present invention to induce neuroregeneration or inhibit neurodegeneration, an animal model of Alzheimer's disease was used. In this model mice develop neurodegeneration because they express a series of mutant proteins that lead to brain damage (Alzh mice). B6 mice were used as healthy animal controls. Both groups of animals were treated for a period of 3 months with vehicle (water) or with various D-PUFA (20 mg/kg, daily po) since they were an age of 3 months. To determine whether cognitive improvement occurred after treatment, animal behaviour was monitored in the radial maze. The animals are kept on restricted diet to have appetite. In a symmetrical 8-arm radial maze, visual marks were placed to facilitate the orientation of the animal and food (15 mg tablet) was put in four of the arms. The time each animal took to complete the exercise, and the number of errors, were measured using a camera attached to a computer system. In this sense, Alzheimer animals have values about 50% higher than healthy animals, both by the time it takes to perform the exercise and by the number of errors made (FIG. 4B). […] In this regard, the effectiveness of the compound 183B1, 205A1, 205B1, 226A1, 226 V1 was also tested, showing improvements in animals with Alzheimer's disease (times of 98, 92, 93, 86 and 89 seconds, respectively). On the other hand, it is also interesting that these same compounds (183B1, 205A1, 205B1, 226A1, 226B1 and 226V1) also produced reductions in the times taken to complete the experiment in control animals (B6 healthy mice) of 8s, 11s, 12s, 18s, 16s and 14s, respectively. Therefore, it may be concluded that these compounds have significant activity against neurodegeneration and in neuroregeneration.

Structure (SMILES)	Temperature of lamellar-to-hexagonal transition [1]	IC50 [2]	IC50 [3]	IC50 (lung cancer cells A549)	IC50 (Jurkat cells)	Blood pressure [4]	Expression of α-synuclein (α-synuclein)	Time to complete the radial maze exercise (Alzh mice)	Reduction in the time taken to complete the experiment (B6 healthy mice)	Transition temperature (lamellar to HII) [1]	IC50 ([2]; Homo sapiens, MDA-MB-231)	IC50 (lung cancer cells A549; Homo sapiens, A549)	IC50 (Jurkat cells; Homo sapiens, Jurkat)
CCC=CCC=CCC=CCCCCCCC(O)C(=O)[O-].[Na+] (stereo not drawn) [183B1]	51.9 °C	267 µM	202 µM	195 µM	196 µM	197 mm Hg	43%	98 s	8 s				
CCC=CCC=CCC=CCC=CCC=CCCC(O)C(=O)O (stereo not drawn) [205A1, 2-hydroxy-5,8,11,14,17-eicosapentaenoic acid]			400 µM			193 mm Hg	35%	92 s	11 s	47.9 °C	390 µM	394 µM	376 µM
CCC=CCC=CCC=CCC=CCC=CCCC(O)C(=O)[O-].[Na+] (stereo not drawn) [205B1]	48.3 °C	208 µM	391 µM	202 µM	294 µM	187 mm Hg	41%	93 s	12 s				
CCC=CCC=CCC=CCC=CCC=CCC=CCC(O)C(=O)O (stereo not drawn) [226A1]		187 µM	214 µM	195 µM	85 µM	194 mm Hg	23%	86 s	18 s	44.4 °C			
